Here are results for nine molecules from article PMC6009932, “Small molecule purine and pseudopurine derivatives: synthesis, cytostatic evaluations and investigation of growth inhibitory effect in non-small cell lung cancer A549” (Journal of Enzyme Inhibition and Medicinal Chemistry, 2017).

One data set relates to A549 (lung carcinoma). The data set can be described thus: Proliferation assay (MTT, 72 h) on A549. Type of data set: cell-based. The settings on record: Homo sapiens, A549 lung adenocarcinoma. On the procedure: (§1) Human carcinoma cell lines A549 (lung carcinoma), HeLa (cervical carcinoma), SW620 (colorectal adenocarcinoma, metastatic), and CFPAC-1 (pancreatic cancer, derived from metastatic: liver), normal human lung (WI38) and foreskin (HFF-1) fibroblasts were obtained from the American Type Culture Collection (ATCC). Cells were cultured in humidified atmosphere at 37 °C with 5% CO2. As growth medium, Dulbecco’s modified Eagle medium (DMEM) was used with the addition of foetal bovine serum (10%), L-glutamine (2 mM) and antibiotics: streptomycin (100 µg/ml) and penicillin (100 U/ml).
(§2) Cells were seeded onto 96-well microtiter plates at a seeding density of 3000 cells/well for carcinoma cell lines, and 5000 cells/well for normal human fibroblasts. The next day, cells were treated with test agents in five different concentrations (0.01–100 µM) and further incubated for 72 h. […] Following 72 h incubation, the MTT assay was performed and measured absorbances were transformed into percentage of cell growth as described previously. Results were obtained from three independent experiments. IC50 values were calculated using linear regression analysis and results were statistically analysed by ANOVA, Tukey post-hoc test (p < .05).

The subject of data set [1] is CFPAC-1 (ductal pancreatic adenocarcinoma). Description: Proliferation assay (MTT, 72 h) on CFPAC-1. Format: cell-based. The note with it: Homo sapiens. On the procedure: as §1, §2
Data set [2] concerns HeLa (cervical carcinoma). The data set can be described thus: Proliferation assay (MTT, 72 h) on HeLa. Type of data set: cell-based. The settings on record: Homo sapiens. The method, then:
as §1, §2

The test system of data set [3] is SW620 (colorectal adenocarcinoma, metastatic). The data set can be described thus: Proliferation assay (MTT, 72 h) on SW620. The note with it: Homo sapiens, SW-620. Format: cell-based. On the procedure:
as §1, §2

In data set [4] the test system is WI38 normal human lung fibroblasts. The data set can be described thus: Proliferation assay (MTT, 72 h) on normal lung fibroblasts WI38. Format: cell-based. The note with it: WI-38, read-out: IC50 WI38/HFF-1 (WI38). The method, then:
as §1, §2

The subject of data set [5] is HFF-1 normal human foreskin fibroblasts. The data set can be described thus: Proliferation assay (MTT, 72 h) on normal foreskin fibroblasts HFF-1. The note with it: compounds 11a–e tested in HFF-1 cell line, read-out: IC50 WI38/HFF-1 (HFF-1). Format: cell-based. The method, then:
as §1, §2

The melting point is the temperature of the solid-liquid transition. Molecule `Fc1ccc2c(ccn2Cc2cn(-c3ccc(Cl)cc3)nn2)c1` [Compound 10b] gave a melting point of 117 to 120 °C. In the data set on A549 (lung carcinoma), this molecule had an IC50 of 40.2 µM. Further, the IC50 in data set [1] is > 100 µM. In data set [2], the IC50 turned out to be 31 µM. For the same molecule, the IC50 in data set [3] is 45.8 µM. For the same molecule, the IC50 in data set [4] was found to be 58.1 µM.
The molecule `Fc1ccc2c(ccn2Cc2cn(-c3ccc(C(F)(F)F)cc3)nn2)c1` [Compound 10c, 5-Fluoro-1-{[1–(4-(trifluoromethyl)phenyl)-1 H-1,2,3-triazol-4-yl]methyl}-1 H-indole] registered a melting point of 151 to 154 °C. In addition, in the data set with A549 (lung carcinoma), the IC50 amounted to 71.6 µM. Besides, the IC50 in data set [1] stood at 64.7 µM. Moreover, in data set [2], the IC50 is 53 µM. Besides, in data set [3], the IC50 was 54.2 µM. Also, the IC50 in data set [4] is 24 µM.
Turning to `Clc1ccc(-n2cc(Cn3ccc4ccccc43)nn2)cc1` [Compound 11b, 1-{[1-(4-Chlorophenyl)-1H-1,2,3-triazol-4-yl]methyl}-1H-indole], the IC50 (in the data set on A549 (lung carcinoma); in data set [1]; in data set [2]; in data set [3]; in data set [5]) was > 100 µM throughout.
On to `O=c1cc(Cn2cc(Cn3cnc4ncnc(Cl)c43)nn2)c2ccc(O)cc2o1` [Compound 6e, 4-{[4-((6-Chloro-7H-purin-7-yl)methyl)-1H-1,2,3-triazol-1-yl]methyl}-7-hydroxy-2H-chromen-2-one], for which the melting point is > 250 °C. In the data set on A549 (lung carcinoma), the IC50 was > 100 µM. In addition, the IC50 in data set [1] was > 100 µM. The IC50 in data set [2] is > 100 µM. Moreover, in data set [3], the IC50 is > 100 µM. In addition, in data set [4], the IC50 stood at 73.6 µM.
On to `FC(F)(F)c1ccc(-n2cc(Cn3ccc4ccccc43)nn2)cc1` [Compound 11c, 1-{[1-(4-(Trifluoromethyl)phenyl)-1H-1,2,3-triazol-4-yl]methyl}-1H-indole], for which the IC50 (with A549 (lung carcinoma); in data set [1]; in data set [2]; in data set [3]; in data set [5]) was > 100 µM in each case.
Consider `FC(F)(F)c1ccc(-n2cc(Cn3cc(Br)c4c(Cl)ncnc43)nn2)cc1` [Compound 9c, 5-Bromo-4-chloro-7-{[1-(4-(trifluoromethyl)phenyl)-1H-1,2,3-triazol-4-yl]methyl}-7H-pyrrolo[2,3-d]pyrimidine], for which the melting point is 220 to 221 °C. The molecule further came in with an IC50 in the data set with A549 (lung carcinoma) of 66.4 µM. Further, the IC50 in data set [1] was found to be 62.8 µM. Moreover, in data set [2], the IC50 is 32.9 µM. Further, the IC50 in data set [3] was 55.7 µM. In data set [4], the IC50 worked out at 57.5 µM.
On to `Fc1ccccc1-n1cc(Cn2ccc3ccccc32)nn1` [Compound 11d, 1-{[1-(2-Fluorophenyl)-1H-1,2,3-triazol-4-yl]methyl}-1H-indole], for which the IC50 with A549 (lung carcinoma) is 51.3 µM; in data set [1], 85.6 µM; in data set [2], 71.2 µM; in data set [3] it was 44.8 µM; in data set [5] it was 40.4 µM.
As to `O=c1cc(Cn2cc(Cn3ccc4c(Cl)ncnc43)nn2)c2ccc(O)cc2o1` [Compound 8e, 4-{[4-((4-Chloro-7H-pyrrolo[2,3-d]pyrimidin-7-yl)methyl)-1H-1,2,3-triazol-1-yl]methyl}-7-hydroxy-2H-chromen-2-one], the melting point is 202 to 204 °C. Further, in the data set on A549 (lung carcinoma), the IC50 amounted to 69.2 µM. The molecule also had an IC50 in data set [1] of 36.3 µM. Moreover, the IC50 in data set [2] came to 33.6 µM. Further, the IC50 in data set [3] worked out at 73.5 µM. The IC50 in data set [4] was 39.9 µM.
In turn, `FC(F)(F)c1ccc(-n2cc(Cn3cnc4c(Cl)nccc43)nn2)cc1` [Compound 5c, 4-Chloro-1-{[1-(4-(trifluoromethyl)phenyl)-1H-1,2,3-triazol-4-yl]methyl}-1H-imidazo[4,5-c]pyridine] displayed a melting point of 151 to 154 °C. This molecule returned an IC50 in the data set with A549 (lung carcinoma) of 9.43 µM. This molecule also had an IC50 in data set [1] of 7.39 µM. The IC50 in data set [2] amounted to 22.5 µM. Also, the IC50 in data set [3] turned out to be 11.8 µM. Besides, the IC50 in data set [4] was 5.21 µM.
